Each compound was assayed on Xanthium strumarium (assay: Herbicidal activity against Xanthium strumarium (cocklebur) 5000 g/ha after 2 weeks). Conditions: not given.
Format: functional

Row | Compound | Activity [%]
1 | CCC(C)NC(=O)c1nc(C)c(C)nc1C(=O)Nc1cc(Cl)ccc1C (racemic) | 95
2 | CC[C@@H](C)NC(=O)c1nc(C)c(C)nc1C(=O)Nc1cc(F)ccc1C | 70

Each compound was assayed on Glycine max (assay: Herbicidal activity against Glycine max (soybean) at 5000 g/ha after 2 weeks). Conditions: in vivo, 336 h.
Format: organism-based

Row | Compound | Activity [%]
3 | CCC(C)NC(=O)c1nc(C)c(C)nc1C(=O)Nc1cc(Cl)ccc1C (racemic) | < 10
4 | CC[C@@H](C)NC(=O)c1nc(C)c(C)nc1C(=O)Nc1cc(F)ccc1C | < 10

These compounds were tested on Veronica persica (assay: Herbicidal activity against Veronica persica at 250 g/ha after 2 weeks). Conditions: not given.
Format: functional

Row | Compound | Activity [%]
5 | CCC(C)NC(=O)c1nc(C)c(C)nc1C(=O)Nc1cc(Cl)ccc1C (racemic) | 70
6 | CC[C@@H](C)NC(=O)c1nc(C)c(C)nc1C(=O)Nc1cc(F)ccc1C | 30

These compounds were tested on Triticum aestivum (assay: Herbicidal activity against Triticum aestivum (wheat) at 500 g/ha after 2 weeks). Conditions: in vivo, 336 h.
Format: ADME, organism-based

Row | Compound | Activity [%]
7 | CCC(C)NC(=O)c1nc(C)c(C)nc1C(=O)Nc1cc(Cl)ccc1C (racemic) | < 10
8 | CC[C@@H](C)NC(=O)c1nc(C)c(C)nc1C(=O)Nc1cc(F)ccc1C | < 10

These compounds were tested on Triticum aestivum (assay: Herbicidal activity against Triticum aestivum (wheat) at 250 g/ha after 2 weeks). Conditions: in vivo, 336 h.
Format: organism-based

Row | Compound | Activity [%]
9 | CCC(C)NC(=O)c1nc(C)c(C)nc1C(=O)Nc1cc(Cl)ccc1C (racemic) | < 10
10 | CC[C@@H](C)NC(=O)c1nc(C)c(C)nc1C(=O)Nc1cc(F)ccc1C | < 10

The compounds below were run on Echinochloa crus-galli (assay: Herbicidal activity against Echinochloa crus-galli (barnyard grass) at 500 g/ha after 2 weeks). Conditions: not given.
Format: functional

Row | Compound | Activity [%]
11 | CCC(C)NC(=O)c1nc(C)c(C)nc1C(=O)Nc1cc(Cl)ccc1C (racemic) | 10
12 | CC[C@@H](C)NC(=O)c1nc(C)c(C)nc1C(=O)Nc1cc(F)ccc1C | 30

What follows are compounds tested on Echinochloa crus-galli (assay: Herbicidal activity against Echinochloa crus-galli (barnyard grass) at 5000 g/ha after 2 weeks). Conditions: not given.
Format: functional

Row | Compound | Activity [%]
13 | CCC(C)NC(=O)c1nc(C)c(C)nc1C(=O)Nc1cc(Cl)ccc1C (racemic) | 95
14 | CC[C@@H](C)NC(=O)c1nc(C)c(C)nc1C(=O)Nc1cc(F)ccc1C | 30

Each compound was assayed on Avena fatua (assay: Herbicidal activity against Avena fatua at 250 g/ha after 2 weeks). Conditions: not given.
Format: functional

Row | Compound | Activity [%]
15 | CCC(C)NC(=O)c1nc(C)c(C)nc1C(=O)Nc1cc(Cl)ccc1C (racemic) | <10
16 | CC[C@@H](C)NC(=O)c1nc(C)c(C)nc1C(=O)Nc1cc(F)ccc1C | <10

Each compound was assayed on Veronica persica (assay: Herbicidal activity against Veronica persica at 5000 g/ha after 2 weeks). Conditions: not given.
Format: functional

Row | Compound | Activity [%]
17 | CCC(C)NC(=O)c1nc(C)c(C)nc1C(=O)Nc1cc(Cl)ccc1C (racemic) | 95
18 | CC[C@@H](C)NC(=O)c1nc(C)c(C)nc1C(=O)Nc1cc(F)ccc1C | 95

What follows are compounds tested on Galium spurium (assay: Herbicidal activity against Galium spurium var. echinospermon (Wally.) Hayek at 250 g/ha after 2 weeks). Conditions: not given.
Format: functional

Row | Compound | Activity [%]
19 | CCC(C)NC(=O)c1nc(C)c(C)nc1C(=O)Nc1cc(Cl)ccc1C (racemic) | <10
20 | CC[C@@H](C)NC(=O)c1nc(C)c(C)nc1C(=O)Nc1cc(F)ccc1C | <10

These compounds were tested on Veronica persica (assay: Herbicidal activity against Veronica persica at 500 g/ha after 2 weeks). Conditions: not given.
Format: functional

Row | Compound | Activity [%]
21 | CCC(C)NC(=O)c1nc(C)c(C)nc1C(=O)Nc1cc(Cl)ccc1C (racemic) | 70
22 | CC[C@@H](C)NC(=O)c1nc(C)c(C)nc1C(=O)Nc1cc(F)ccc1C | 95

What follows are compounds tested on Abutilon theophrasti (assay: Herbicidal activity against Abutilon theophrasti (velvetleaf) at 250 g/ha after 2 weeks). Conditions: not given.
Format: functional

Row | Compound | Activity [%]
23 | CCC(C)NC(=O)c1nc(C)c(C)nc1C(=O)Nc1cc(Cl)ccc1C (racemic) | <10
24 | CC[C@@H](C)NC(=O)c1nc(C)c(C)nc1C(=O)Nc1cc(F)ccc1C | 30

The compounds below were run on Galium spurium (assay: Herbicidal activity against Galium spurium var. echinospermon (Wally.) Hayek at 5000 g/ha after 2 weeks). Conditions: not given.
Format: functional

Row | Compound | Activity [%]
25 | CCC(C)NC(=O)c1nc(C)c(C)nc1C(=O)Nc1cc(Cl)ccc1C (racemic) | 95
26 | CC[C@@H](C)NC(=O)c1nc(C)c(C)nc1C(=O)Nc1cc(F)ccc1C | 70

The compounds below were run on Glycine max (assay: Herbicidal activity against Glycine max (soybean) at 250 g/ha after 2 weeks). Conditions: in vivo, 336 h.
Format: organism-based

Row | Compound | Activity [%]
27 | CCC(C)NC(=O)c1nc(C)c(C)nc1C(=O)Nc1cc(Cl)ccc1C (racemic) | < 10
28 | CC[C@@H](C)NC(=O)c1nc(C)c(C)nc1C(=O)Nc1cc(F)ccc1C | < 10

The compounds below were run on Xanthium strumarium (assay: Herbicidal activity against Xanthium strumarium (cocklebur) 250 g/ha after 2 weeks). Conditions: not given.
Format: functional

Row | Compound | Activity [%]
29 | CCC(C)NC(=O)c1nc(C)c(C)nc1C(=O)Nc1cc(Cl)ccc1C (racemic) | <10
30 | CC[C@@H](C)NC(=O)c1nc(C)c(C)nc1C(=O)Nc1cc(F)ccc1C | <10

Each compound was assayed on Echinochloa crus-galli (assay: Herbicidal activity against Echinochloa crus-galli (barnyard grass) at 250 g/ha after 2 weeks). Conditions: not given.
Format: functional

Row | Compound | Activity [%]
31 | CCC(C)NC(=O)c1nc(C)c(C)nc1C(=O)Nc1cc(Cl)ccc1C (racemic) | <10
32 | CC[C@@H](C)NC(=O)c1nc(C)c(C)nc1C(=O)Nc1cc(F)ccc1C | <10

The compounds below were run on Xanthium strumarium (assay: Herbicidal activity against Xanthium strumarium (cocklebur) 500 g/ha after 2 weeks). Conditions: not given.
Format: functional

Row | Compound | Activity [%]
33 | CCC(C)NC(=O)c1nc(C)c(C)nc1C(=O)Nc1cc(Cl)ccc1C (racemic) | <10
34 | CC[C@@H](C)NC(=O)c1nc(C)c(C)nc1C(=O)Nc1cc(F)ccc1C | 50

Each compound was assayed on Glycine max (assay: Herbicidal activity against Glycine max (soybean) at 500 g/ha after 2 weeks). Conditions: in vivo, 336 h.
Format: organism-based

Row | Compound | Activity [%]
35 | CCC(C)NC(=O)c1nc(C)c(C)nc1C(=O)Nc1cc(Cl)ccc1C (racemic) | < 10
36 | CC[C@@H](C)NC(=O)c1nc(C)c(C)nc1C(=O)Nc1cc(F)ccc1C | < 10

What follows are compounds tested on Triticum aestivum (assay: Herbicidal activity against Triticum aestivum (wheat) at 5000 g/ha after 2 weeks). Conditions: in vivo, 336 h.
Format: ADME, organism-based

Row | Compound | Activity [%]
37 | CCC(C)NC(=O)c1nc(C)c(C)nc1C(=O)Nc1cc(Cl)ccc1C (racemic) | 70
38 | CC[C@@H](C)NC(=O)c1nc(C)c(C)nc1C(=O)Nc1cc(F)ccc1C | 50

What follows are compounds tested on Galium spurium (assay: Herbicidal activity against Galium spurium var. echinospermon (Wally.) Hayek at 500 g/ha after 2 weeks). Conditions: not given.
Format: functional

Row | Compound | Activity [%]
39 | CCC(C)NC(=O)c1nc(C)c(C)nc1C(=O)Nc1cc(Cl)ccc1C (racemic) | <10
40 | CC[C@@H](C)NC(=O)c1nc(C)c(C)nc1C(=O)Nc1cc(F)ccc1C | 30

Each compound was assayed on Abutilon theophrasti (assay: Herbicidal activity against Abutilon theophrasti (velvetleaf) at 500 g/ha after 2 weeks). Conditions: not given.
Format: functional

Row | Compound | Activity [%]
41 | CCC(C)NC(=O)c1nc(C)c(C)nc1C(=O)Nc1cc(Cl)ccc1C (racemic) | <10
42 | CC[C@@H](C)NC(=O)c1nc(C)c(C)nc1C(=O)Nc1cc(F)ccc1C | 95

These compounds were tested on Abutilon theophrasti (assay: Herbicidal activity against Abutilon theophrasti (velvetleaf) at 5000 g/ha after 2 weeks). Conditions: not given.
Format: functional

Row | Compound | Activity [%]
43 | CCC(C)NC(=O)c1nc(C)c(C)nc1C(=O)Nc1cc(Cl)ccc1C (racemic) | 95
44 | CC[C@@H](C)NC(=O)c1nc(C)c(C)nc1C(=O)Nc1cc(F)ccc1C | 95

These compounds were tested on Avena fatua (assay: Herbicidal activity against Avena fatua at 500 g/ha after 2 weeks). Conditions: not given.
Format: functional

Row | Compound | Activity [%]
45 | CCC(C)NC(=O)c1nc(C)c(C)nc1C(=O)Nc1cc(Cl)ccc1C (racemic) | <10
46 | CC[C@@H](C)NC(=O)c1nc(C)c(C)nc1C(=O)Nc1cc(F)ccc1C | <10

Each compound was assayed on Avena fatua (assay: Herbicidal activity against Avena fatua at 5000 g/ha after 2 weeks). Conditions: not given.
Format: functional

Row | Compound | Activity [%]
47 | CCC(C)NC(=O)c1nc(C)c(C)nc1C(=O)Nc1cc(Cl)ccc1C (racemic) | 50
48 | CC[C@@H](C)NC(=O)c1nc(C)c(C)nc1C(=O)Nc1cc(F)ccc1C | 30

Reference: ChEMBL document CHEMBL3046846, “Synthesis of N-Alkyl-2, 3-dimethyl-5-[N-(5-halo-2-methylphenyl)carbamoyl]-6-pyrazinecarboxamides and Their Herbicidal Activity” (J Pestic Sci, 1997)
